Data as given in patent US10828281B2, “Non-hydrophobic compounds for use in treating metastasis and/or cartilage defect” (Friedrich-Alexander-Universität Erlangen-Nürnberg, priority 2015, dated 2020).
Entries after “also recorded” stand apart in the source; their conditions may differ.

Experiments:
[1] = biological target: T1, MIA-MIA interaction (Homo sapiens, UniProt Q16674); details: disclosed in WO 2011/113604; cited from earlier work
T1 sequence (Q16674 25-131): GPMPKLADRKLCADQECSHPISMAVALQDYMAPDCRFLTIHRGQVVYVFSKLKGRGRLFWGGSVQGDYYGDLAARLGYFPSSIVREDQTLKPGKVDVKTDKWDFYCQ

[2] = tested on: human melanoma cell line Mel Im; experiment: proliferation of melanoma cell line Mel Im; type: cell-based; details: FIG. 6
[3] = tested on: kidney cells HEK-293; experiment: cellular attachment of kidney cells; type: cell-based, human; details: 7.8 μM, in vitro, HEK-293, FIG. 5D
Procedure: (§1) In order to assess whether compounds of the present invention show any adverse effects on normal cells, human fibroblasts and kidney cells were treated with the compounds 1, 2, 3, 4, 5, and 6, respectively, in vitro at a concentration of 7.8 μM in analogy to previous studies (Schmidt, J., et al., Targeting melanoma metastasis and immunosuppression with a new mode of melanoma inhibitory activity (MIA) protein inhibition. PLoS One, 2012. 7(5): p. e37941; Riechers, A., et al., Heterogeneous transition metal-based fluorescence polarization (HTFP) assay for probing protein interactions. Biotechniques, 2009. 47(4): p. 837-44).

[4] = tested on: human fibroblasts; experiment: cellular attachment of human fibroblasts; type: cell-based; details: 7.8 μM, in vitro, FIG. 5B
Procedure: as §1

[5] = tested on: human fibroblasts; experiment: proliferation of human fibroblasts; type: cell-based; details: 7.8 μM, in vitro, FIG. 5A
Procedure: as §1

[6] = tested on: kidney cells HEK-293; experiment: proliferation of kidney cells; type: cell-based, human; details: 7.8 μM, in vitro, HEK-293, FIG. 5C
Procedure: as §1

[7] = biological target: T1, MIA-MIA interaction; experiment: heterogeneous transition metal-based fluorescence polarization (HTFP) assay of MIA dimerization; type: binding; details: FIG. 3
Procedure: The dimerization of the MIA protein is for example measured by a heterogeneous transition metal-based fluorescence polarization (HTFP) assay, wherein the ratio P/P0 is measured. P is the fluorescence polarization signal of a MIA protein labeled with a transition metal complex in the presence of substrate bound MIA-protein and of a compound to be tested. P0 is the fluorescence polarization signal of free MIA-protein labeled with said luminescent transition metal complex in the absence of substrate bound MIA-protein and in the absence of the compound. In the absence of the compound, usually, the labeled MIA-protein would interact with the substrate bound MIA-protein, which, in turn, would contribute to a reduction in rotational mobility of the labeled MIA-protein, and therefore, the fluorescence polarization signal would increase upon such interaction. If, additionally, a compound is present that interferes with such interaction, no or little dimerization/aggregation occurs and no or little increase in fluorescence polarization signal would be detected. The smaller or even more negative P/P0 is, the stronger such interference with dimer formation and aggregation is, and the better such compound prevents or breaks up dimerization/aggregation of MIA protein. In an alternative embodiment, binding of the compound to MIA protein is determined by NMR, e.g., heteronuclear NMR, e.g., ^15N-^1H-HSQC-NMR.
All listed compounds that were screened for their ability to interfere with the MIA-MIA interaction (Table 1) in a heterogeneous transition metal-based fluorescence polarization (HTFP) assay previously developed (Riechers, A., et al., Heterogeneous transition metal-based fluorescence polarization (HTFP) assay for probing protein interactions. Biotechniques, 2009. 47(4): p. 837-44). […] The molecular structures of the compounds showing interference with the MIA-MIA interaction in the HTFP assay are shown in Table 1.

[8] = tested on: human Mel-Im melanoma cells; experiment: Boyden chamber migration assay; type: cell-based; details: compound 1 μM, MIA 200 ng/mL, FIG. 4
Procedure: The melanoma cell line Mel-Im, established from a human metastatic bioptic sample (generous gift from Dr. Johnson, University of Munich, Germany) was used for the Boyden chamber migration experiments. All cells were maintained in DMEM (PAA, Pasching, Germany) supplemented with penicillin (400 U/mL), streptomycin (50 μg/mL), L-glutamine (300 μg/mL) and 10% fetal calf serum (Pan Biotech GmbH, Aidenbach, Germany) and split in a 1:6 ratio every three days. Migration assays were performed in Boyden Chambers containing polycarbonate filters with […] (Neuro Probe, Gaithersburg, Md., USA) essentially as described. MIA was added to the cell suspension at a final concentration of 200 ng/mL. Selected compounds were used at a final concentration of 1 μM. Experiments were carried out in triplicates and repeated at least three times.

Row | effect on cellular attachment of kidney cells [3] | effect on cellular attachment of human fibroblasts [4] | fluorescence polarization of Ru-(bpy)3 labelled MIA (interference with the MIA-MIA interaction) [7] | Molecule | blocking of the MIA-MIA interaction [1] | proliferation of the human melanoma cell line Mel Im after treatment [2] | effect on proliferation of human fibroblasts [5] | effect on proliferation of kidney cells [6] | MIA activity on melanoma cell migration [8]
1 |  |  |  | AR71: a peptide having the amino acid sequence FHWRYPLPLPGQ (SEQ ID NO:1) | able to block the MIA-MIA interaction |  |  |  | 
2 | no negative effects | no negative effects | significant decreases | CC(=O)c1c(C)cn(CC(O)CN2CCNCC2)c1C (stereo not shown) [Compound 4, 1-{1-[2-hydroxy-3-(piperazin-1-yl)propyl]-2,4-dimethyl-1H-pyrrol-3-yl}ethan-1-one] |  | could not be found | no negative effects | no negative effects | reduction
3 | no negative effects | no negative effects | significant decreases | CCCCCNC(=O)Cc1cc(=O)[nH]c(=O)[nH]1 [Compound 3, 2-(2,6-dioxo-1,2,3,6-tetrahydropyrimidin-4-yl)-N-Pentylacetamide] |  | could not be found | no negative effects | no negative effects | reduction; also recorded: inhibition
4 | no negative effects | no negative effects | significant decreases | CCC(C)N1CC(=O)C(c2nc3ccccc3[nH]2)=C1N (stereo not shown) [Compound 1, 5-amino-4-(1H-1,3-benzodiazol-2-yl)-1-(butan-2-yl)-2,3-dihydro-1H-pyrrol-3-one] |  | significant decrease; also recorded: inhibition | no negative effects | no negative effects | reduction; also recorded: inhibition
5 | no negative effects | no negative effects | significant decreases | CCCCNC(=O)c1c(O)nc2c(C)cccn2c1=O [Compound 6, N-butyl-2-hydroxy-9-methyl-4-oxo-4H-pyrido[1,2-a]pyrimidine-3-carboxamide] |  | could not be found | no negative effects | no negative effects | reduction

Row | Molecule | effect on cellular attachment of kidney cells [3] | effect on cellular attachment of human fibroblasts [4] | fluorescence polarization of Ru-(bpy)3 labelled MIA (interference with the MIA-MIA interaction) [7] | blocking of the MIA-MIA interaction [1] | proliferation of the human melanoma cell line Mel Im after treatment [2] | effect on proliferation of human fibroblasts [5] | effect on proliferation of kidney cells [6] | MIA activity on melanoma cell migration [8]
6 | CS(=O)(=O)NCC#CCN1CCc2ccccc2C1 [Compound 2, N-[4-(1,2,3,4-tetrahydroisoquinolin-2-yl)but-2-yn-1-yl]methanesulfonamide] | no negative effects | no negative effects | significant decreases |  | could not be found | no negative effects | no negative effects | reduction; also recorded: inhibition
7 | COc1ccc2[nH]c(CN3CCNCC3)nc2c1 [Compound 5, 5-methoxy-2-(piperazin-1-ylmethyl)-1H-1,3-Benzodiazole] | no negative effects | no negative effects | significant decreases |  | could not be found | no negative effects | no negative effects | reduction
